≈ marks a conversion by molar mass, not a printed value. Calls of active or inactive are those of the source. The rule behind the calls is not given here.
Columns and labels:
Pseudomonas putida = experiment: Antibacterial activity against Pseudomonas putida ATCC 12633 at <50 ug/ml measured every 1 hr; type: functional, organism-based
Bacillus subtilis = experiment: Antibacterial activity against Bacillus subtilis ATCC 23857 at <50 ug/ml measured every 1 hr; type: functional, organism-based
Saccharomyces cerevisiae = experiment: Antifungal activity against Saccharomyces cerevisiae assessed as growth inhibition measured every 4 hrs; type: functional
[1] = target: DNA topoisomerase 2-alpha (Homo sapiens, UniProt P11388); experiment: Inhibition of topoisomerase-2 (unknown origin)
Sequence of DNA topoisomerase 2-alpha (P11388 whole entry): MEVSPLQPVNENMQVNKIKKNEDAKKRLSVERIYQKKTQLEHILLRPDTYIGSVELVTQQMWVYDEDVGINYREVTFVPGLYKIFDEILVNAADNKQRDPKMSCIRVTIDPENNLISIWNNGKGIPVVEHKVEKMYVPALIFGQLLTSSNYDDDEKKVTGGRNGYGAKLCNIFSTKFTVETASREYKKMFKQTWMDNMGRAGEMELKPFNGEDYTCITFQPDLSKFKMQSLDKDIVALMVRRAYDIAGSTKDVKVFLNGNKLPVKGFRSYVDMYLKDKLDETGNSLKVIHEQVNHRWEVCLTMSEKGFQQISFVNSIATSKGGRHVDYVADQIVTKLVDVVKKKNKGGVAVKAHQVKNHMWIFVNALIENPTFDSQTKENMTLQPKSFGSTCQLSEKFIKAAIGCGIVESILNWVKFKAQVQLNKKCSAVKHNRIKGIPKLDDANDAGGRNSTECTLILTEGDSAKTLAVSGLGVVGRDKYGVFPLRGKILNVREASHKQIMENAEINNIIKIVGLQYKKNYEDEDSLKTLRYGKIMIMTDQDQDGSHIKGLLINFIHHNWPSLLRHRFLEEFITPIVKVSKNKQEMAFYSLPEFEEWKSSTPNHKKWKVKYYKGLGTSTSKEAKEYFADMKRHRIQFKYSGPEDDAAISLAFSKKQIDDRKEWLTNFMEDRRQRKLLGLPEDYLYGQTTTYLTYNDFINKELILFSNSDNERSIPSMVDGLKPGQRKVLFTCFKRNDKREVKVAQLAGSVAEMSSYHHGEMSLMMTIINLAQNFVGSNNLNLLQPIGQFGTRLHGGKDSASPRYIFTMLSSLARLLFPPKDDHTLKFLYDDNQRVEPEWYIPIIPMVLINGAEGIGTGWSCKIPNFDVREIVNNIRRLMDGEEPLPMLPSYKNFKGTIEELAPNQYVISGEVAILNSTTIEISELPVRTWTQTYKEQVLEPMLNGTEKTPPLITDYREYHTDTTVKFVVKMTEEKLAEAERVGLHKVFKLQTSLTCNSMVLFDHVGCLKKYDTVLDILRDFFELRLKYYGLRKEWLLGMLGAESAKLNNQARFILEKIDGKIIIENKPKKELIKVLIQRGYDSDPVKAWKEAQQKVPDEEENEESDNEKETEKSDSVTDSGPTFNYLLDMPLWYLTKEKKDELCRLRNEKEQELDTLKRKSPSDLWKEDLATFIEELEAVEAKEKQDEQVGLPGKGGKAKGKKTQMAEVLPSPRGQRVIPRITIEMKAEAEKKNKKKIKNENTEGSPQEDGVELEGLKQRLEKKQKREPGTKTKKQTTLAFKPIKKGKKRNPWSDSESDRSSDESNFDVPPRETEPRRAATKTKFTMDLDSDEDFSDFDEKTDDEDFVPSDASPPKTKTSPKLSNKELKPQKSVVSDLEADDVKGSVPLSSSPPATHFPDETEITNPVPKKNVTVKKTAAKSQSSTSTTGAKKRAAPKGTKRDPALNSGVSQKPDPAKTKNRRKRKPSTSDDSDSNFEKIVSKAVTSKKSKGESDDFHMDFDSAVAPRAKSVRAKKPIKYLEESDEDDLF

[2] = Inhibition of DNA gyrase (unknown origin)-mediated DNA supercoiling
[3] = Inhibition of DNA gyrase (unknown origin)-mediated DNA relaxation

Molecule | Activity (Pseudomonas putida) | Activity (Bacillus subtilis) | MIC (Saccharomyces cerevisiae) | IC50 [1] | IC50 [2] | IC50 [3]
Cc1c(O)cc(C[C@@H](O)CCCCCCCO)oc1=O | inactive | inactive |  |  |  | 
C[C@@H](O)CCCCC[C@H]1Cc2cc(O)c(C(=O)O)c(O)c2[C@@H](O)O1 | inactive | inactive | 100 µg/mL (≈ 294 µM) |  |  | 
O=C(O)c1c(O)cc2c(c1O)CO[C@@H](CCCCCCCO)C2 | inactive | inactive | 100 µg/mL (≈ 308 µM) |  |  | 
NYSTATIN |  |  | < 5 µg/mL |  |  | 
C[C@@H](O)CCCCC[C@H]1Cc2cc(O)c(C(=O)O)c(O)c2CO1 | inactive | inactive | 100 µg/mL (≈ 308 µM) |  |  | 
O=C(O)c1c(O)cc2c(c1O)[C@@H](O)O[C@@H](CCCCCCCO)C2 | inactive | inactive | 100 µg/mL (≈ 294 µM) |  |  | 
CCCCCCC[C@H]1Cc2cc(O)c(C(=O)O)c(O)c2[C@@H](O)O1 |  |  |  | 3.08 µM | 6 µg/mL (≈ 18.5 µM) | 9 µg/mL (≈ 27.7 µM)
CCCCCCC[C@@H](O)C[C@H](O)Cc1cc(O)c(C)c(=O)o1 | inactive | inactive |  |  |  | 
Cc1c(O)cc(C[C@@H](O)C[C@H](O)CCCCCCCO)oc1=O | inactive | inactive |  |  |  | 

— ChEMBL document CHEMBL3108777, “Isochromans and α-pyrones from Penicillium corylophilum” (J Nat Prod, 2014)
